Reference: ChEMBL document CHEMBL4840351 (J Med Chem, 2021)

Experiments:
[1] = target: Tyrosine-protein kinase BTK (Homo sapiens, UniProt Q06187); experiment: Inhibition of full-length N-terminal GST tagged BTK (2 to 659 residues) (unknown origin) expressed in Sf21 insect cells using NH2-ETVYSEVRK-biotin as substrate preincubated for 1 hr followed by ATP addition and measured after 2 hrs by ELISA
[2] = target: Epidermal growth factor receptor (Homo sapiens, UniProt P00533); experiment: Inhibition of N-terminal DYKDDDD-tagged EGFR (669 to 1210 residues) (unknown origin) expressed in Sf21 insect cells using NH2-ETVYSEVRK-biotin as substrate preincubated for 1 hr followed by ATP addition and measured after 2 hrs by ELISA
Sequence of Epidermal growth factor receptor (P00533 whole entry, the tested form may be a part): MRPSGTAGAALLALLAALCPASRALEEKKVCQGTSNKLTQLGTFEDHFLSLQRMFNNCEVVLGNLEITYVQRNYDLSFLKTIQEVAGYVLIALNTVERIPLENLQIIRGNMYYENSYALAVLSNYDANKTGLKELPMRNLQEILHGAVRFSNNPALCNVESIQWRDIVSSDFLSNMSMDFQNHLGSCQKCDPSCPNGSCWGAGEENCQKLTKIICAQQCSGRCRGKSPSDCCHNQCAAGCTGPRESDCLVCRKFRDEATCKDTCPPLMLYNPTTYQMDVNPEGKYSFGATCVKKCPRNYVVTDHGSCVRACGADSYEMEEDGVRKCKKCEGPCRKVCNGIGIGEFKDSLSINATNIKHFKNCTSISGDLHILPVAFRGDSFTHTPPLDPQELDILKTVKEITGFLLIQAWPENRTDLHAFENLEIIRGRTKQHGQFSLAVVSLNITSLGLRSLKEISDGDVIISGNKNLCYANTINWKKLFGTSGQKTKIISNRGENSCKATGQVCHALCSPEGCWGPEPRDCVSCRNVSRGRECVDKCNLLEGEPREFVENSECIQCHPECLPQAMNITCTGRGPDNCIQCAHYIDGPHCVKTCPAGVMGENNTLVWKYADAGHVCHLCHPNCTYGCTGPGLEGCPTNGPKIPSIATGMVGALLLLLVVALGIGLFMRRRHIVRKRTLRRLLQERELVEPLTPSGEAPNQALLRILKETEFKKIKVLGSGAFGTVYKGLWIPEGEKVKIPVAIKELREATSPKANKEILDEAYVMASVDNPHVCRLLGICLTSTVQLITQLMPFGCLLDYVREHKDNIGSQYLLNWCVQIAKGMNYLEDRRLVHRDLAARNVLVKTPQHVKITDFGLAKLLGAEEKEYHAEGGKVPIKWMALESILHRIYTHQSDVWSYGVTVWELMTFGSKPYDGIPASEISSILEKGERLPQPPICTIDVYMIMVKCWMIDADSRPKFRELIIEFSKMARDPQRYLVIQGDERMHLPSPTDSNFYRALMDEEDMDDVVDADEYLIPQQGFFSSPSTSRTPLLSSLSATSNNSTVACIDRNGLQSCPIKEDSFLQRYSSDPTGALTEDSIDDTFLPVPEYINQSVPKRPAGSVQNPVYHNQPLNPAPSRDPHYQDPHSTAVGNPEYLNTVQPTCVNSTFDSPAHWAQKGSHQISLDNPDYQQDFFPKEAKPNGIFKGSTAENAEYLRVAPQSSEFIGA

[3] = target: T1, Tyrosine-protein kinase ITK/TSK (Homo sapiens, UniProt Q08881); experiment: Inhibition of full-length N-terminal GST-tagged ITK (2 to 620 residues) (unknown origin) expressed in Sf21 insect cells using NH2-ETVYSEVRK-biotin as substrate preincubated for 1 hr followed by ATP addition and measured after 2 hrs by ELISA
T1 sequence (Q08881 whole entry): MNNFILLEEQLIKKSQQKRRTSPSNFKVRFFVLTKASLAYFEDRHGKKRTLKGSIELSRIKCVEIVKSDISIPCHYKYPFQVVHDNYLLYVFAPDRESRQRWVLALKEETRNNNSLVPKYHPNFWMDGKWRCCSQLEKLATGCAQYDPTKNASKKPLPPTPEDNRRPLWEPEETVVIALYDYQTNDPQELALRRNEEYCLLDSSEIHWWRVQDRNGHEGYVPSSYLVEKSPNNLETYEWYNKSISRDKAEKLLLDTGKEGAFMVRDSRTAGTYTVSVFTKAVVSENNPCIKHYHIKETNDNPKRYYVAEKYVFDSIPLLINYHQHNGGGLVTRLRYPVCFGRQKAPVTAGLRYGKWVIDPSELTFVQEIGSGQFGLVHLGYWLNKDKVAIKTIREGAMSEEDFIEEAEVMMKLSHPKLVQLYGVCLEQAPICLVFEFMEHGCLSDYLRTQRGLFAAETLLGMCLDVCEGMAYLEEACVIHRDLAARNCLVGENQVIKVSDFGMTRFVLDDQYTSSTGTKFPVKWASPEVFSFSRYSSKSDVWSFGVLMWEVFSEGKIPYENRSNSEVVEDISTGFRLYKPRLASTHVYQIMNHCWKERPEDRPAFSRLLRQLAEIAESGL

TMD8 [4] = experiment: Induction of cell cycle arrest in human TMD8 cells assessed as accumulation of cells at G2 phase at 3 nM incubated for 48 hrs by PI staining based flow cytometric analysis (reference value: 4.92 %); type: functional
TMD8 [5] = experiment: Induction of cell cycle arrest in human TMD8 cells assessed as accumulation of cells at G1 phase at 300 nM incubated for 48 hrs by PI staining based flow cytometric analysis (reference value: 57.66 %); type: functional
TMD8 [6] = experiment: Induction of cell cycle arrest in human TMD8 cells assessed as accumulation of cells at S phase at 30 nM incubated for 48 hrs by PI staining based flow cytometric analysis (reference value: 37.42 %); type: functional
TMD8 [7] = experiment: Induction of cell cycle arrest in human TMD8 cells assessed as accumulation of cells at G2 phase at 300 nM incubated for 48 hrs by PI staining based flow cytometric analysis (reference value: 4.92 %); type: functional
TMD8 [8] = experiment: Induction of apoptosis in human TMD8 cells at 3000 nM incubated for 72 hrs by Annexin V-FITC/PI staining based flow cytometric analysis (reference value: 13.4 %); type: functional
TMD8 [9] = experiment: Induction of cell cycle arrest in human TMD8 cells assessed as accumulation of cells at S phase at 300 nM incubated for 48 hrs by PI staining based flow cytometric analysis (reference value: 37.42 %); type: functional
TMD8 [10] = experiment: Induction of apoptosis in human TMD8 cells at 30 nM incubated for 72 hrs by Annexin V-FITC/PI staining based flow cytometric analysis (reference value: 13.4 %); type: functional
TMD8 [11] = experiment: Induction of apoptosis in human TMD8 cells at 300 nM incubated for 72 hrs by Annexin V-FITC/PI staining based flow cytometric analysis (reference value: 13.4 %); type: functional
TMD8 [12] = experiment: Induction of cell cycle arrest in human TMD8 cells assessed as accumulation of cells at G2 phase at 30 nM incubated for 48 hrs by PI staining based flow cytometric analysis (reference value: 4.92 %); type: functional
TMD8 [13] = experiment: Induction of cell cycle arrest in human TMD8 cells assessed as accumulation of cells at G1 phase at 3 nM incubated for 48 hrs by PI staining based flow cytometric analysis (reference value: 57.66 %); type: functional
TMD8 [14] = experiment: Induction of cell cycle arrest in human TMD8 cells assessed as accumulation of cells at G1 phase at 30 nM incubated for 48 hrs by PI staining based flow cytometric analysis (reference value: 57.66 %); type: functional
Ramos = experiment: Antiproliferative activity against human Ramos cells assessed as reduction in cell viability incubated for 72 hrs by celltiter-glo assay
TMD8 [15] = experiment: Antiproliferative activity against human TMD8 cells assessed as reduction in cell viability incubated for 72 hrs by celltiter-glo assay; conditions: TMD8, 72 h
TMD8 [16] = experiment: Induction of cell cycle arrest in human TMD8 cells assessed as accumulation of cells at S phase at 3 nM incubated for 48 hrs by PI staining based flow cytometric analysis (reference value: 37.42 %); type: functional
MOLM-13 = experiment: Antiproliferative activity against human MOLM-13 cells assessed as reduction in cell viability incubated for 72 hrs by celltiter-glo assay; conditions: MOLM-13, 72 h
TMD8 [17] = experiment: Antitumor activity against human TMD8 cells xenografted in CB-17 SCID nude mouse assessed as tumor growth inhibition at 7.5 mg/kg, po bid administered for 21 days; type: functional; conditions: 504 h, time 21 day, read-out: TGI
NAMALVA = experiment: Antiproliferative activity against human NAMALWA cells assessed as reduction in cell viability incubated for 72 hrs by celltiter-glo assay
SU-DHL-2 = experiment: Antiproliferative activity against human SUDHL2 cells assessed as reduction in cell viability incubated for 72 hrs by celltiter-glo assay; conditions: SU-DHL-2, 72 h
Raji = experiment: Antiproliferative activity against human Raji cells assessed as reduction in cell viability incubated for 72 hrs by celltiter-glo assay
Pfeiffer = experiment: Antiproliferative activity against human Pfeiffer cells assessed as reduction in cell viability incubated for 72 hrs by celltiter-glo assay
Rec1 = experiment: Antiproliferative activity against human REC-1 cells assessed as reduction in cell viability incubated for 72 hrs by celltiter-glo assay; conditions: Rec1, 72 h
[18] = Cmax in ICR mouse at 15 mg/kg, po after 24 hrs; type: ADME, organism-based; parameters: route oral, time 24 hrs, dose 15 mg/kg; conditions: in vivo
[19] = Receptor occupancy at BTK in spleen of ICR mouse at 15 mg/kg, po after 24 hrs by ELISA; type: functional

Sequence of Tyrosine-protein kinase BTK (Q06187 whole entry, the tested form may be a part): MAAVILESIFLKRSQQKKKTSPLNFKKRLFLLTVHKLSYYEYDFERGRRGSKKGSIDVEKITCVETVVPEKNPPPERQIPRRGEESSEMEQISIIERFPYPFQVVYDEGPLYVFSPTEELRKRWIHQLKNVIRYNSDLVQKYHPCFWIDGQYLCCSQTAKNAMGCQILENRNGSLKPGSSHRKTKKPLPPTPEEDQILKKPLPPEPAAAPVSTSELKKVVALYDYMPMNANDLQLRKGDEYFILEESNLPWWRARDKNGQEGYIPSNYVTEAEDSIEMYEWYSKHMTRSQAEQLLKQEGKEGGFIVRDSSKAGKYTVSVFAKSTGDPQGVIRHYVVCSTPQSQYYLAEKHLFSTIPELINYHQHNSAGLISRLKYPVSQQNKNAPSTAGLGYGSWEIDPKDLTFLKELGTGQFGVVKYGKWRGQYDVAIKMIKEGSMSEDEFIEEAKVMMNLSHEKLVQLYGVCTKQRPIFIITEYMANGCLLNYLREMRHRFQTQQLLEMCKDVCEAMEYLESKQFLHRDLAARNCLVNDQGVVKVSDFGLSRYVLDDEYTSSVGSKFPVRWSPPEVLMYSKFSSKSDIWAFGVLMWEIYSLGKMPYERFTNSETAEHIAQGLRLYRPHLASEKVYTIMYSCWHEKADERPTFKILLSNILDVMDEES

With `CCC(=O)N1CCCC[C@H]1c1nc(-c2ccc(C(=O)Nc3cc(C(F)(F)F)ccn3)cc2)c(C(N)=O)n1N` the IC50 [1] was 4750 nM.

Compound `CCc1ccnc(NC(=O)c2ccc(-c3nc([C@@H]4CCCCN4C(=O)C=C(C)C)n(N)c3C(N)=O)cc2)c1` has an IC50 [1] greater than 10000 nM.

`C=CC(=O)N1CCCC[C@H]1c1nc(-c2ccc(C(=O)Nc3cc(Br)ccn3)cc2)c(C(N)=O)n1N` gave an IC50 [2] of 578 nM and an IC50 [3] of 15300 nM.

In the case of `C=CC(=O)N1CCCC[C@H]1c1nc(-c2ccc(C(=O)Nc3cc(-c4ccc(Cl)cc4)ccn3)cc2)c(C(N)=O)n1N`, the IC50 [2] is reported as 12.6 nM and the IC50 [3] is reported as 1920 nM.

For `CCc1ccnc(NC(=O)c2ccc(-c3nc([C@@H]4CCCCN4C(=O)/C(C#N)=C/C(C)C)n(N)c3C(N)=O)cc2)c1`, the IC50 [1] was greater than 10000 nM.

`C#CC(=O)N1CCCC[C@H]1c1nc(-c2ccc(C(=O)Nc3cc(CC)ccn3)cc2)c(C(N)=O)n1N` gave an IC50 [1] of 10 nM.

`C=CC(=O)N1CCCC[C@H]1c1nc(-c2ccc(C(=O)Nc3ccccc3)cc2)c(C(N)=O)n1N` gave an IC50 [1] of 571 nM.

Compound `CC/C=C/C(=O)N1CCCC[C@H]1c1nc(-c2ccc(C(=O)Nc3cc(CC)ccn3)cc2)c(C(N)=O)n1N` has an IC50 [1] greater than 10000 nM.

Work on `C=CC(=O)N1CCCC[C@H]1c1nc(-c2ccc(C(=O)Nc3cc(C#N)ccn3)cc2)c(C(N)=O)n1N` yielded an IC50 [1] of 17.1 nM.

`C=CC(=O)N1CCCC[C@H]1c1nc(-c2ccc(C(=O)Nc3cc(OC)ccn3)cc2)c(C(N)=O)n1N` gave an IC50 [2] of 450 nM and an IC50 [3] greater than 30000 nM.

`C=CC(=O)N1CCCCC[C@H]1c1nc(-c2ccc(C(=O)Nc3cc(CC)ccn3)cc2)c(C(N)=O)n1N` showed an IC50 [1] of 226 nM.

In the case of `CCc1ccnc(NC(=O)c2ccc(-c3nc([C@@H]4CCCCN4C(=O)/C(C#N)=C/C4CC4)n(N)c3C(N)=O)cc2)c1`, the IC50 [1] is reported as greater than 10000 nM.

With `CC#CC(=O)N1CCCC[C@H]1c1nc(-c2ccc(C(=O)Nc3cc(-c4ccccc4)ccn3)cc2)c(C(N)=O)n1N` the IC50 [2] was 16800 nM and the IC50 [3] was greater than 30000 nM.

In the case of `CC#CC(=O)N1CCCC[C@H]1c1nc(-c2ccc(C(=O)Nc3cc(C(F)(F)F)ccn3)cc2)c(C(N)=O)n1N`, the Activity (TMD8 [4]) is reported as 4.09%, the Activity (TMD8 [5]) is reported as 94.86% and the Activity (TMD8 [6]) is reported as 27.8%. For the same compound, the Activity (TMD8 [7]) was 3.18%, the Activity (TMD8 [8]) was 81.3% and the Activity (TMD8 [9]) was 1.96%. The Activity (TMD8 [10]) was 14.1%, the Activity (TMD8 [11]) was 36.8% and the Activity (TMD8 [12]) was 4.76%. It also gave an Activity (TMD8 [13]) of 54.63%, an Activity (TMD8 [14]) of 67.44% and an IC50 (Ramos) of 770 nM. The IC50 (TMD8 [15]) was 54 nM, the Activity (TMD8 [16]) was 41.28% and the IC50 (MOLM-13) was 730 nM. It also gave an IC50 [3] greater than 30000 nM.

In the case of `C/C=C/C(=O)N1CCCC[C@H]1c1nc(-c2ccc(C(=O)Nc3cc(CC)ccn3)cc2)c(C(N)=O)n1N`, the IC50 [1] is reported as greater than 10000 nM.

In the case of `CC#CC(=O)N1CCCC[C@H]1c1nc(-c2ccc(C(=O)Nc3cc(Cl)ccn3)cc2)c(C(N)=O)n1N`, the IC50 [2] is reported as greater than 30000 nM and the IC50 [3] is reported as greater than 30000 nM.

For `C=CC(=O)N1CCCC[C@H]1c1nc(-c2ccc(C(=O)Nc3cc(-c4ccccc4)ccn3)cc2)c(C(N)=O)n1N`, the IC50 [2] was 79.4 nM and the IC50 [3] was 2210 nM.

`C=CC(=O)N1CCCC[C@H]1c1nc(-c2ccc(C(=O)Nc3cccnc3)cc2)c(C(N)=O)n1N` showed an IC50 [1] greater than 10000 nM.

`C=CC(=O)N1CCCC[C@H]1c1nc(-c2ccc(C(=O)Nc3cc(Cl)ccn3)cc2)c(C(N)=O)n1N` showed an IC50 [2] of 176 nM and an IC50 [3] of 29500 nM.

With `C=CC(=O)N1CCCC[C@H]1c1nc(-c2ccc(C(=O)Nc3cc(-c4ccc(F)cc4)ccn3)cc2)c(C(N)=O)n1N` the IC50 [2] was 113 nM and the IC50 [3] was 6060 nM.

For `C=CC(=O)N1CCC[C@@H](c2nc(-c3ccc(C(=O)Nc4cc(CC)ccn4)cc3)c(C(N)=O)n2N)C1`, the IC50 [1] was 18.9 nM.

Compound `C=CC(=O)N1CCCC[C@H]1c1nc(-c2ccc(C(=O)Nc3cc(C(F)(F)F)ccn3)cc2)c(C(=O)OCC)n1N` has an IC50 [1] of 5160 nM.

Compound `C=C(C)C(=O)N1CCCC[C@H]1c1nc(-c2ccc(C(=O)Nc3cc(CC)ccn3)cc2)c(C(N)=O)n1N` has an IC50 [1] greater than 10000 nM.

For `C=CC(=O)N1CCC[C@@H](n2nc(-c3ccc(Oc4ccccc4)cc3)c3c(N)ncnc32)C1` [IBRUTINIB], the inhibition in vivo at 7.5 mg/kg (TMD8 [17]) was 99%.

For `CC#CC(=O)N1CCC[C@H]1c1nc(-c2ccc(C(=O)Nc3ccccn3)cc2)c2c(N)nccn12` [ACALABRUTINIB], the IC50 (NAMALVA) was greater than 10000 nM, the IC50 (SU-DHL-2) was greater than 10000 nM and the IC50 (Raji) was greater than 10000 nM. It also gave an IC50 (Ramos) of 31300 nM, an inhibition in vivo at 7.5 mg/kg (TMD8 [17]) of 91% and an IC50 (Pfeiffer) greater than 10000 nM. The IC50 (Rec1) was 13 nM, the IC50 (TMD8 [15]) was 24 nM and the IC50 (MOLM-13) was 358000 nM. It also gave a Cmax [18] of 780 nM and an Occ [19] of 44%.

With `C=CC(=O)N1CCCC[C@H]1c1nc(-c2ccc(C(=O)Nc3cc(CC)ccn3)cc2)c(C(N)=O)n1N` the IC50 [1] was 11.3 nM.

Work on `C=CC(=O)N1CCC[C@H]1c1nc(-c2ccc(C(=O)Nc3cc(CC)ccn3)cc2)c(C(N)=O)n1N` yielded an IC50 [1] of 39.3 nM.
